From patent US20120183580A1, “Analgesic Composition for Transbuccal Administration” (priority 2011, published 2012)
Like-named read-outs stand apart in the source and are kept apart here. Where a SMILES comes first, the peptide text is derived from it.

Columns and labels:
rats [1] = experiment: elevated-plus maze test; settings: rat, in vivo
Description: Two opposite arms of the elevated-plus maze are enclosed by high walls (closed arms) while the other two are not (open arms). The test animals (rats) naturally prefer and spend more time in the closed aims.

[2] = cited from earlier work; for bioavailability by the sublingual route: oxytocin in physiological saline solution
Swiss albino mice [3] = system: Swiss albino mice
Description: Swiss albino mice (˜20-30 g) were first trained on the rotarod, which accelerated from 0-20 rpm over 5 min, prior to the experiment. Only mice that were capable of staying on the rotarod for the entire 5 min period were used in this experiment. Mice were either administered with the peptide (1 or 10 mg/kg, sublingual), or morphine (20 mg/kg, subcutaneous). After drug administration, the animals are placed on the rotarod and the time taken for the mice to slip was recorded (up to 5 min), and subsequently at 1 h, 2 h and 3 h post peptide, and at 30 min, 1 h 30 min and 2 h 30 min post morphine. Statistical comparison was done by either Student's t-test or one-way ANOVA.

Swiss albino mice [4] = system: Swiss albino mice; remark: listed apart in the source
Description: Swiss albino mice (˜30-40 g) were first placed into their respective chambers with a 20 min pre-treatment recording. Only mice showing at least 50 counts/5 min are used in the experiments. Mice were administered saline (control), peptide (5 or 50 mg/kg) or morphine (50 mg/kg). Experimenters were blind to the identity of the drug solutions. […] Statistical comparison was done by 2-way ANOVA.

Swiss albino mice [5] = settings: mouse, in vivo
Description: Swiss albino mice (30-35 g) were injected with saline, the peptide (5 mg/kg, 50 mg/kg intraperitoneal) or morphine (0.5 mg/kg, 5 mg/kg, 50 mg/kg intraperitoneal). The experimenters are blind to the identity of the solutions. All mice were administered 5 mg charcoal (0.1 ml of 50 mg/ml charcoal solution) via oral gavage immediately after drug administration. At 30 min post-drug/charcoal administration, the mice were sacrificed by cervical dislocation and the GI tract was exposed and the location of the charcoal identified. The distance the charcoal traveled in the intestine from the stomach was measured and expressed as % of total length of the GI tract.

[6] = pharmacokinetics: plasma concentration by LC/MS/MS after sublingual, intravenous, oral, intraperitoneal administration; type: in vivo, mice; settings: mouse
Description: The peptide (1, 5, 15 and 25 mg/kg, 0.5 ml/kg) was administered sublingually to mice. Upon reaching specified time points of 1, 5, 15, 30, 60 and 120 min post-dose, each mouse was sacrificed and blood samples were collected via cardiac puncture. Plasma samples were then extracted and analyzed under LC/MS/MS.
Systemic exposure of the peptide was also studied through intravenous, oral (gavage) and intraperitoneal routes.

Swiss albino mice [7] = experiment: toxicity, single dose regimen; type: in vivo; settings: single dose 8 or 80 mg/kg intraperitoneal, day 14
Description: (§1) Swiss albino mice were administered with the peptide at 8 mg/kg or 80 mg/kg (intraperitoneal) on day 1 and then observed for 14 days. Control mice received saline. At the end of the period, all mice were sacrificed, dissected and observed for any obvious abnormality. Weights of the major organs, including brain, heart, lung, liver, spleen and kidney, were recorded.

Swiss albino mice [8] = experiment: toxicity, multiple dose regimen; type: in vivo; settings: 8 or 80 mg/kg intraperitoneal daily, 14 days
Description: as §1, with “once daily” for “on day 1 and then observed”, “killed,” for “sacrificed,”

C57 mice = type: in vivo; settings: 8 or 80 mg/kg intraperitoneal once daily for 14 days
Description: as §1, with “once daily” for “on day 1 and then observed”, “killed,” for “sacrificed,”
The multiple dose toxicity testing was repeated exactly as described above except that C57 mice were used instead of Swiss albino mice. Similar results were obtained in terms of body weights, vital organ weights and behavior of control and treated animals (data not shown).

acute high dose toxicity = type: in vivo, mice; settings: mouse, in vivo; intravenous, mice
Description: (§2) Acute toxicity was determined by both oral and intravenous administration of the peptide. Three mice were given a dose of peptide at 2 g/kg orally by gavage, 5 ml/kg.

mice = experiment: acute high dose toxicity; type: in vivo
Description: as §2

Sprague-Dawley rats = experiment: acute effect on blood pressure in anesthetized rats; type: in vivo; settings: for effect on blood pressure: 5 and 20 mg/kg
Description: Sprague-Dawley rats (˜300 g) were anesthetized and the carotid artery was cannulated for blood pressure measurement. Drugs were administered by the pre-determined route. A pulse transducer was secured across the thoracic region of the rat to allow measurement of respiration rate. Blood pressure was recorded for at least 15 min or until a relatively stable blood pressure was observed.

rats [9] = settings: 1 or 50 mg/kg intraperitoneal, vs saline control
Description: The open field was divided into 16 equal size squares (25×25 cm). The 4 squares at the centre are assigned a low anxiety score (0) while those at the 4 corners are assigned a high anxiety score (2). The remaining 8 squares are assigned a medium score (1). A rat entering each square will be given the score assigned to that square. The sum total obtained within the 5-min test period divided by the number of squares entered is the anxiety score for that rat. Diazepam was used as positive control. Statistical comparison was done by Student's t-test.

CN1C(=O)CN=C(c2ccccc2)c2cc(Cl)ccc21 [diazepam]
time spent in the open or closed arms (rats [1]): reversed the times spent in open and closed arms

NC(=O)CC[C@@H]1NC(=O)[C@H](Cc2ccccc2)NC(=O)[C@H](Cc2ccc(O)cc2)NC(=O)CCSSC[C@@H](C(=O)N2CCC[C@H]2C(=O)N[C@H](CCCN=C(N)N)C(=O)NCC(N)=O)NC(=O)[C@H](CC(N)=O)NC1=O [desmopressin]
bioavailability by the sublingual route [2]: about 0.25%

CN1CC[C@]23c4c5ccc(O)c4O[C@H]2[C@@H](O)C=C[C@H]3[C@H]1C5 [morphine, reference compound]
motor-coordination (time on rotarod) (Swiss albino mice [3]; mouse, in vivo): No statistical significant effects | locomotor activity vs control (Swiss albino mice [4]; mouse, in vivo): significant increase in locomotive activities | GI motility (distance traveled by charcoal) (Swiss albino mice [5]): dose-dependently decreased GI motility

C[C@@H](O)[C@H](NC(=O)[C@@H]1CCCN1C(=O)[C@H](Cc1ccccc1)NC(=O)[C@@H]1CCCN1C(=O)[C@@H](N)CC(N)=O)C(=O)N[C@@H](Cc1c[nH]c2ccccc12)C(=O)N[C@@H](CCCNC(=N)N)C(=O)N[C@@H](CCCCN)C(=O)N[C@@H](CCCNC(=N)N)C(=O)N1CCC[C@H]1C(=O)NCC(=O)O [the peptide, NPFPTWRKRPG] (H-NPFPTWRKRPG-OH; N-terminus and C-terminus assumed)
bioavailability ([6]; 25 mg/kg, sublingual route, AUC compared to intravenous route): 44% | Tmax ([6]; after sublingual administration, read-out: time of highest level in the plasma (converted)): 5 min | organ appearance (Swiss albino mice [7]): All organs appeared normal | organ appearance (Swiss albino mice [8]): All organs appeared normal | death (C57 mice): No death occurred | LD50 at 2 weeks (acute high dose toxicity): ~125 mg/kg | clinical observation (mice; 62.5 mg/kg intravenous): appeared sedated | clinical observation, surviving mice (mice; 125 mg/kg intravenous): appeared heavily sedated for several hours | clinical observation (mice; 2 g/kg oral by gavage): appeared sedated with much decreased activity | effect on blood pressure (Sprague-Dawley rats; intravenous route): decreased in blood pressure | effect on blood pressure (Sprague-Dawley rats; sublingual or intraperitoneal routes): did not cause any changes in blood pressure | heart rate and respiration rate (Sprague-Dawley rats; all experiments (5 and 20 mg/kg, all routes)): No significant changes | motor-coordination (time on rotarod) (Swiss albino mice [3]; 1 or 10 mg/kg sublingual, up to 3 h post-dose): No statistical significant effects | locomotor activity vs control (Swiss albino mice [4]; 5 or 50 mg/kg, within 4 h of drug administration): no significant difference | anxiety score (rats [9]): did not show any effect

CC[C@H](C)[C@@H]1NC(=O)[C@H](Cc2ccc(O)cc2)NC(=O)[C@@H](N)CSSC[C@@H](C(=O)N2CCC[C@H]2C(=O)N[C@@H](CC(C)C)C(=O)NCC(N)=O)NC(=O)[C@H](CC(N)=O)NC(=O)[C@H](CCC(N)=O)NC1=O [oxytocin]
bioavailability ([2]; formulation including 0.75% w/w sodium taurocholate (tablet form)): 27% | bioavailability by the sublingual route [2]: 0.007-0.07%
